pIC50: −log10 of the molar value.
Legend:
[1] = system: H1299 lung tumor xenografts; assay: H1299 subcutaneous xenograft, Ad-mda7 with sulindac; details: vector 3×10^9 vp intratumoral thrice a week; sulindac 40 mg/kg i.p. daily
Method: In mice receiving sulindac, 40 mg/kg was administered i.p. every day. Animals were weighed once a week to determine the body weight. Tumor growth was monitored and measured three times a week as described previously (Saeki et al., 2002; Ramesh et al., 2003). At 22-25 days after initiation of the treatment all animals were killed via CO2 inhalation, and the tumors were removed for histopathologic examination and western blot analysis. Experiments were performed two separate times for reproducibility and statistical significance.

[2] = system: A549; assay: Cell cycle distribution by FACS; assay type: cell-based, human; details: 72 h
Method: (§1) Each treatment group was tested in triplicate. The concentrations of sulindac used were the same as those for the cell-proliferation assay. At 72 h after the start of the treatment, cells were harvested, washed, and analyzed for cell cycle phases and apoptotic fraction as previously described (Saeki et al., 2000). The cell cycle phases and DNA contents were analyzed using FACScan (EPICS XL-MCL; Beckman Coulter, Fullerton, Calif.).

[3] = system: H1299; assay: Cell cycle distribution by FACS; assay type: cell-based, human; details: 72 h
Method: as §1

[4] = system: A549; assay: Ad-GFP transduction efficiency with sulindac (flow cytometry); assay type: cell-based, human; details: Ad-GFP 100 vp/cell, 24 h
Method: (§2) To determine the effect of sulindac on adenovirus transduction, tumor and normal cells were infected with Ad-GFP at 100 vp/cell and analyzed for GFP expression at 24 h by FACS.

[5] = system: CCD-16; assay: as above; assay type: cell-based, human; details: Ad-GFP 100 vp/cell, 24 h
Method: as §2

[6] = system: H1299; assay: as above; assay type: cell-based, human; details: Ad-GFP 100 vp/cell, 24 h
Method: as §2

[7] = system: CCD-16; assay: Cell proliferation assay (trypan blue); assay type: cell-based, human
Method: (§3) All three cell lines (A549, H1299, and CCD-16) were seeded in 60-mm-diameter tissue culture dishes at a density of 1×10^5 cells/dish in triplicate. […] The concentrations of sulindac tested were 0.125, 0.25, and 0.5 mM. At 72 h after the start of treatment, the cells were harvested by trypsinization, washed, and subjected to typan-blue exclusion assay as previously described (Saeki et al., 2000).

[8] = system: NF-κB; assay: NF-κB activation by EMSA; assay type: cell-based, human; details: H1299 and A549
[9] = system: A549; assay: Cell proliferation assay (trypan blue); assay type: cell-based, human
Method: All three cell lines (A549, H1299, and CCD-16) were seeded in 60-mm-diameter tissue culture dishes at a density of 1×10^5 cells/dish in triplicate. […] […] At 72 h after the start of treatment, the cells were harvested by trypsinization, washed, and subjected to typan-blue exclusion assay as previously described (Saeki et al., 2000).

[10] = molecular target: T1, proteasome in H1299 cells (Homo sapiens, UniProt P28074); assay: Proteasome activity assay and ubiquitinated protein western blot; assay type: cell-based; details: vs untreated control cells
T1 construct: endogenous in cells; host or cells: H1299 human lung cancer cells, treated and then lysed; 20 µg total lysate protein per reaction
Method: Proteasome activity assays were performed as previously described (Choi et al., 2003). […] The sulindac concentrations tested were the same as those in the other assays. At 24 h after the start of treatment, the cells were lysed in proteasome buffer (10 mM Tris-HCl, pH 7.5, 1 mM EDTA, 20% glycerol, 5 mM ATP, and 4 mM DTT), sonicated, and then centrifuged at 1300×g at 4° C. for 10 min. The upper supernatant phase was collected, and the protein concentration of cell lysates was determined as previously described (Saeki et al., 2000).
To assay the chymotrypsin-like activity of the proteasome, the fluorogenic substrate Suc-LLVY-AMC (Chemicon International, Inc., Temecula, Calif.) was used. Twenty micrograms of total protein from each treatment group described above was diluted to 100 μl in reaction buffer (25 mM HEPES, pH 7.5, 0.5 mM EDTA, 0.05% NP-40, and 0.001% SDS). […] The intensity of fluorescence in each sample solution was measured using a fluorescence plate reader (Dynatech Laboratories, Chantily, Va.) at 360-nm excitatory and 460-nm emission wavelengths. All readings were standardized using the fluorescence intensity of an equal volume of free 7-Amino-4-methylcoumarin (AMC) solution (50 μM). The values were expressed as percentages for control greater than the internal positive control percentages provided by the supplier.

[11] = system: H1299; assay: Cell proliferation assay (trypan blue); assay type: cell-based; details: Homo sapiens, NCI-H1299; read-out: IC50 of growth inhibition
Method: as §3

T1 sequence (P28074 60-263): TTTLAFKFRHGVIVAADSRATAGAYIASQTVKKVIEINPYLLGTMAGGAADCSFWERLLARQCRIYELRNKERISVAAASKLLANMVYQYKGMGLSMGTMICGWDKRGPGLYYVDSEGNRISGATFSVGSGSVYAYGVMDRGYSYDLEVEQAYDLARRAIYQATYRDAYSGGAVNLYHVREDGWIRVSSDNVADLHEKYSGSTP

In the case of `CC1=C(CC(=O)O)c2cc(F)ccc2/C1=C\c1ccc([S+](C)[O-])cc1` (centres unmarked) [Sulindac], the tumor growth [1] was “No significant growth inhibition”, the “cells in G1” value ([2]; sulindac 0.125 mM) was 64.8% and the “cells in G2/M” value ([2]; sulindac 0.125 mM) was 6.4%. For the same molecule, the “cells in S” value ([2]; sulindac 0.125 mM) was 28.9%, the “cells in G1” value ([2]; sulindac 0.5 mM) was 75.6% and the “cells in G2/M” value ([2]; sulindac 0.5 mM) was 6.0%. The “cells in S” value ([2]; sulindac 0.5 mM) was 18.5%, the “cells in G1” value ([3]; sulindac 0.125 mM) was 66.4% and the “cells in G2/M” value ([3]; sulindac 0.125 mM) was 11.4%. The “cells in S” value ([3]; sulindac 0.125 mM) was 22.3%, the “cells in G1” value ([3]; sulindac 0.5 mM) was 74.6% and the “cells in G2/M” value ([3]; sulindac 0.5 mM) was 12.7%. For the same molecule, the “cells in S” value ([3]; sulindac 0.5 mM) was 13.0%, the transduction efficiency ([4]; sulindac 0.125 mM) was 52.4 ± 0.6% and the transduction efficiency ([4]; sulindac 0.25 mM) was 51.5 ± 1.3%. The transduction efficiency ([4]; sulindac 0.5 mM) was 65.0 ± 1.5 + a %, the transduction efficiency ([5]; sulindac 0.125 mM) was 12.1 ± 0.4% and the transduction efficiency ([5]; sulindac 0.25 mM) was 11.1 ± 1.0%. It also gave a transduction efficiency ([5]; sulindac 0.5 mM) of 13.7 ± 0.4%, a transduction efficiency ([6]; sulindac 0.125 mM) of 80.0 ± 0.5% and a transduction efficiency ([6]; sulindac 0.25 mM) of 78.6 ± 1.2%. The transduction efficiency ([6]; sulindac 0.5 mM) was 82.7 ± 2.8%, the pIC50 ([7]; Homo sapiens, read-out: IC50 of growth inhibition) was 3.03 and the “inhibitory effect on cell proliferation” value ([7]; normal cells, 1 and 2 mM) was 60%. For the same molecule, the NF-κB activation [8] was “inhibit NF-κB activation”, the pIC50 ([9]; Homo sapiens, A549, read-out: IC50 of growth inhibition) was 3.24 and the “inhibitory effect on cell proliferation” value ([9]; tumor cells, 1 and 2 mM) was > 90%. For the same molecule, the proteasome activity [10] was “does not inhibit” and the pIC50 [11] was 3.21.
